Assay results: US20250092065A1, “2-(INDAZOL-5-YL)-6-(PIPERIDIN-4-YL)-1,7-NAPHTHYRIDINE DERIVATIVES AND RELATED COMPOUNDS AS MODULATORS FOR SPLICING NUCLEIC ACIDS AND FOR THE TREATMENT OF PROLIFERATIVE DISEASES” (REMIX THERAPEUTICS INC., priority 2022, published 2025)

Assays:
Target C [1] = assay: HiBiT protein abundance assay, Target C (K562 HiBiT knock-in); type: cell-based, human; conditions: HiBiT knock-in K562 cells, 24 hours, top dose 10 μM
Outline: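 K562 HiBiT knock-in cells (10000/well) were treated 24 h at 37° C with a 10-point 3-fold dilution series (top 10 μM final, ≤0.25% DMSO). HiBiT luminescence was read after lytic LgBiT detection. Percent response used unmodified K562 and DMSO-treated knock-in controls, and IC50 came from a four-parameter fit at 50% of untreated.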

K562 cells = assay: Cell Titer Glo 2.0 cell viability (toxicity) assay, K562; conditions: 500 cells/well, 72 hours
Target C [2] = assay: RT-qPCR canonical junction panel assay, Target C mRNA; type: cell-based; conditions: Table 4, read-out: Target C IC50 (decrease in CJ mRNA levels)
Outline: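 A673 or K562 cells treated with compound; CJ mRNA quantified by junction-spanning RT-qPCR probe after cDNA synthesis, normalised to GAPDH, GUSB or PPIA and DMSO (2^−ΔΔCt), scaled to set ΔCt assay window; IC50 from 4-parameter fit of CJ decrease.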

HTT = assay: HiBiT protein abundance assay, HTT (K562 HiBiT knock-in); type: cell-based, human; conditions: HiBiT knock-in K562 cells, 24 hours, top dose 10 μM
Outline: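 Endogenously HiBiT-tagged K562 lines were treated for 24 h at 37 °C with 10-point 3-fold dilutions (top 10 μM final, DMSO ≤0.25%). Lytic LgBiT complementation luminescence was normalized between unmodified K562 (PC) and DMSO-treated tagged cells (NC); IC50 was interpolated at 50% from a four-parameter logistic fit.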

SMILES	IC50 (Target C [1]) [nM]	IC50 (Target C [2]) [nM]	IC50 (HTT) [nM]	Effect of Exemplary Compounds on Cell Viability, K562 (K562 cells)
CN[C@@H]1CCN(c2ccc3nc(-c4cc5cn(C)nc5c(C)c4O)ncc3n2)C1 (single isomer, unassigned) [Compound 368]	100 to 1000	1000 to 10000	100 to 1000	A (A represents <100 nM)
CN[C@H]1CCN(c2ccc3nc(-c4cc5cn(C)nc5c(C)c4O)ncc3n2)C1 (single isomer, unassigned) [Compound 369]	100 to 1000	1000 to 10000	100 to 1000	B (B represents 100-1000 nM)
Cc1nc2c(C)c(O)c(-c3ccc4nc(N5CC[C@@H](NC6(CF)CC6)C5)ccc4n3)cc2o1 (single isomer, unassigned) [Compound 379]	100 to 1000	100 to 1000	< 100	B (B represents 100-1000 nM)
Cn1cc2cc(-c3ncc4nc(N5CC[C@@H](N)C5)ccc4n3)c(O)c(F)c2n1 (single isomer, unassigned) [Compound 380]	100 to 1000	1000 to 10000	< 100	A (A represents <100 nM)
Cn1cc2cc(-c3ccc4nc(C5CCNC[C@H]5O)ccc4n3)c(O)cc2n1 (single isomer, unassigned) [Compound 386]	1000 to 10000	> 10000	1000 to 10000	C (C represents 1000-9999 nM)
Cc1c(O)c(-c2ncc3nc([C@@H]4CCNC4)ccc3n2)cc2cn(C)nc12 (single isomer, unassigned) [Compound 398]	1000 to 10000	> 10000	1000 to 10000	C (C represents 1000-9999 nM)
Cc1nc2c(C)c(O)c(-c3ccc4cc(N5CC[C@@H](NC(C)(C)C)C5)ncc4n3)cc2o1 (single isomer, unassigned) [Compound 444]	100 to 1000	100 to 1000	< 100	B (B represents 100-1000 nM)
Cc1nc2c(C)c(O)c(-c3ccc4cc(N5CC[C@H](NC(C)(C)C)C5)ncc4n3)cc2o1 (single isomer, unassigned) [Compound 445]	1000 to 10000	1000 to 10000	100 to 1000	C (C represents 1000-9999 nM)
Cc1nc2cc(O)c(-c3ccc4nc(N5CC[C@@H](NC6(CF)CC6)C5)ccc4n3)cc2o1 (single isomer, unassigned) [Compound 488]	< 100	< 100	< 100	B (B represents 100-1000 nM)
Cc1nc2cc(O)c(-c3ccc4nc(N5CC[C@H](NC6(CF)CC6)C5)ccc4n3)cc2o1 (single isomer, unassigned) [Compound 489]	< 100	100 to 1000	< 100	A (A represents <100 nM)
Cc1nc2c(F)c(O)c(-c3ccc4nc(N5CC[C@@H](NC6(CF)CC6)C5)ccc4n3)cc2o1 (single isomer, unassigned) [Compound 491]	< 100	< 100	< 100	A (A represents <100 nM)
Cn1cc2cc(-c3ccc4nc(N5CCC(NC6(CF)CC6)C5)ccc4n3)c(O)c(F)c2n1 (stereo in doubt) [Compound 353, 7-fluoro-5-{6-[(3R)-3-{[1-(fluoromethyl)cyclopropyl]amino}pyrrolidin-1-yl]-1,5-naphthyridin-2-yl}-2-methylindazol-6-ol]	< 100	< 100	< 100	A (A represents <100 nM)
Cn1cc2cc(-c3ccc4nc(N5CCC(NC6(CF)CC6)C5)ccc4n3)c(O)c(F)c2n1 (stereo in doubt) [Compound 357, 7-fluoro-5-{6-[(3S)-3-{[1-(fluoromethyl)cyclopropyl]amino}pyrrolidin-1-yl]-1,5-naphthyridin-2-yl}-2-methylindazol-6-ol]	< 100	< 100	< 100	A (A represents <100 nM)

More lines, main results first:

IC50 (Target C [1]) [nM]	IC50 (Target C [2]) [nM]	IC50 (HTT) [nM]	SMILES	Effect of Exemplary Compounds on Cell Viability, K562 (K562 cells)
< 100	100 to 1000	< 100	C[C@H]1C[C@H](c2ccc3nc(-c4cc5cn(C)nc5c(F)c4O)ccc3n2)CCN1 (single isomer, unassigned) [Compound 356]	A (A represents <100 nM)
< 100	100 to 1000	< 100	Cc1c(O)c(-c2ccc3nc(N4CC[C@H](N[C@H]5C[C@H](F)C5)C4)ccc3n2)cc2cn(C)nc12 (single isomer, unassigned) [Compound 358]	B (B represents 100-1000 nM)
< 100	100 to 1000	< 100	Cn1cc2cc(-c3ccc4nc(N5CC[C@@H](N)C5)ccc4n3)c(O)c(F)c2n1 (single isomer, unassigned) [Compound 362]	A (A represents <100 nM)
< 100	< 100	< 100	Cc1nc2c(F)c(O)c(-c3ccc4nc(N5CC[C@H](NC6(CF)CC6)C5)ccc4n3)cc2o1 (single isomer, unassigned) [Compound 373]	A (A represents <100 nM)
< 100	< 100	< 100	Cc1nc2c(C)c(O)c(-c3ccc4nc(N5CC[C@H](NC6(CF)CC6)C5)ccc4n3)cc2o1 (single isomer, unassigned) [Compound 378]	B (B represents 100-1000 nM)
< 100	100 to 1000	< 100	C[C@H]1C[C@@H](c2ccc3nc(-c4cc5cn(C)nc5c(F)c4O)ccc3n2)CCN1 (single isomer, unassigned) [Compound 383]	A (A represents <100 nM)
< 100	< 100	< 100	Cn1cc2cc(-c3ccc4nc(N5CC[C@@H](NC(C)(C)C)C5)ccc4n3)c(O)c(F)c2n1 (single isomer, unassigned) [Compound 391]	A (A represents <100 nM)
< 100	< 100	< 100	Cn1cc2cc(-c3ccc4nc(N5CC[C@H](NC(C)(C)C)C5)ccc4n3)c(O)c(F)c2n1 (single isomer, unassigned) [Compound 392]	A (A represents <100 nM)
< 100	< 100	< 100	Cc1nc2c(C)c(O)c(-c3ccc4nc(N5CC[C@@H](NC6CC6)C5)ncc4n3)cc2o1 (single isomer, unassigned) [Compound 432]	B (B represents 100-1000 nM)
< 100	100 to 1000	100 to 1000	Cc1nc2cc(O)c(-c3ccc4nc(N5CC[C@@H](NC6CC6)C5)ncc4n3)cc2o1 (single isomer, unassigned) [Compound 434]	B (B represents 100-1000 nM)
